Measurements as given in patent US20090036448A1, “PYRIMIDINE DERIVATIVES AND METHODS OF TREATMENT RELATED TO THE USE THEREOF” (TAISHO PHARMECUTICAL CO., LTD., priority 2004, published 2009).
Counter-ions that a name gives are not always drawn.

target: MCH receptor (Homo sapiens, UniProt Q99705); experiment: FLIPR/FDSS6000 functional assay: intracellular Ca2+ changes evoked by MCH; assay type: cell-based; settings: class by percent of control at 10^−7 M or by IC50; antagonist activity, 50 nM of MCH; read-out: class
Text: Subsequently, a functional based assay was used to confirm the lead hits, referred to as FLIPR™ (the Fluorometric Imaging Plate Reader) and FDSS6000™ (Functional Drug Screening System). This assay utilized a non-endogenous, constitutively active version of the MCH receptor.
The FLIPR and FDSS assays are able to detect intracellular Ca^2+ concentration in cells, which can be utilized to assess receptor activation and determine whether a candidate compound is an, for example, antagonist, inverse agonist or agonist to a Gq-coupled receptor. The concentration of free Ca^2+ in the cytosol of any cell is extremely low, whereas its concentration in the extracellular fluid and endoplasmic reticulum (ER) is very high. Thus, there is a large gradient tending to drive Ca^2+ into the cytosol across both the plasma membrane and ER. The FLIPR™ and FDSS6000™ systems (Molecular Devices Corporation, HAMAMATSU Photonics K.K.) are designed to perform functional cell-based assays, such as the measurement of intracellular calcium for high-throughput screening. The measurement of fluorescent is associated with calcium release upon activation of the Gq-coupled receptors.
Fluorometric Imaging Plate Reader system was used to allow for rapid, kinetic measurements of intracellular fluorescence in 96 well microplates (or 384 well microplates). Simultaneous measurements of fluorescence in all wells can be made by FLIPR or FDSS6000™ every second with high sensitivity and precision. These systems are ideal for measuring cell-based functional assays such as monitoring the intracellular calcium fluxes that occur within seconds after activation of the Gq coupled receptor.
Briefly, the cells are seeded into 96 well at 5.5×10^4 cells/well with complete culture media (Dulbecco's Modified Eagle Medium with 10% fetal bovine serum, 2 mM L-glutamine, 1 mM sodium pyruvate and 0.5 mg/mL G418, pH 7.4) for the assay next day. On the day of assay, the media is removed and the cells are incubated with 100 μl of loading buffer (4 μM Fluo-4-AM in complete culture media containing 2.5 mM Probenicid, 0.5 mg/ml and 0.2% bovine serum albumin) in 5% CO2 incubator at 37° C. for 1 hr. The loading buffer is removed, and the cells are washed with wash buffer (Hank's Balanced Salt Solution containing 2.5 mM Probenicid, 20 mM HEPES, 0.5 mg/mL and 0.2% bovine serum albumin, pH 7.4). One hundred fifty μl of wash buffer containing various concentrations of test compound is added to the cells, and the cells are incubated in 5% CO2 incubator at 37° C. for 30 min. Fifty μl of wash buffer containing various concentration of MCH are added to each well, and transient changes in [Ca^2+]i evoked by MCH are monitored using the FLIPR or FDSS in 96 well plates at Ex. 488 nm and Em. 530 nm for 290 second. When antagonist activity of compound is tested, 50 nM of MCH is used.
Use of FLIPR™ and FDSS6000™ can be accomplished by following manufacturer's instruction (Molecular Device Corporation and HAMAMATSU Photonics K.K.).

Row | Molecule | IC50 [nM]
1 | CCc1nc(N[C@H]2CC[C@@H](NC(=O)c3cc(F)c(F)c(F)c3)CC2)cc(N(C)C)n1 [Example 177, N-(cis-4-{[6-(Dimethylamino)-2-ethylpyrimidin-4-yl]amino}cyclohexyl)-3,4,5-trifluorobenzamide hydrochloride] | < 50
2 | CN(C)c1cc(N[C@H]2CC[C@@H](NC(=O)c3ccc(F)c(Cl)c3)CC2)nc(-c2ccccc2)n1 [Example 178, 3-Chloro-N-(cis-4-{[6-(dimethylamino)-2-phenylpyrimidin-4-yl]amino}cyclohexyl)-4-fluorobenzamide hydrochloride] | > 200
3 | CN(C)c1cc(N[C@H]2CC[C@@H](NC(=O)c3ccc(F)c(Cl)c3)CC2)nc(Cc2ccccc2)n1 [Example 179, N-(cis-4-{[2-Benzyl-6-(dimethylamino)pyrimidin-4-yl]amino}cyclohexyl)-3-chloro-4-fluorobenzamide hydrochloride] | < 50
4 | Cc1nc(N[C@H]2CC[C@@H](NC(=O)c3ccc(F)c(Cl)c3)CC2)c(C)c(N(C)C)n1 [Example 180, 3-Chloro-N-(cis-4-{[6-(dimethylamino)-2,5-dimethylpyrimidin-4-yl]amino}cyclohexyl)-4-fluorobenzamide hydrochloride] | > 200
5 | Cc1nc(N[C@H]2CC[C@@H](NC(=O)c3ccc(F)c(Cl)c3)CC2)c(F)c(N(C)C)n1 [Example 181, 3-Chloro-N-(cis-4-{[6-(dimethylamino)-5-fluoro-2-methylpyrimidin-4-yl]amino}cyclohexyl)-4-fluorobenzamide hydrochloride] | > 200
6 | Cc1nc(N[C@H]2CC[C@@H](NS(=O)(=O)c3ccc(F)c(Cl)c3)CC2)cc(N(C)C)n1 [Example 182, 3-Chloro-N-(cis-4-{[6-(dimethylamino)-2-methylpyrimidin-4-yl]amino}cyclohexyl)-4-fluorobenzenesulfonamide hydrochloride] | > 200
7 | Cc1nc(N[C@H]2CC[C@@H](NC(=S)Nc3ccc(F)c(Cl)c3)CC2)cc(N(C)C)n1 [Example 183, N-(3-Chloro-4-fluorophenyl)-N′-(cis-4-{[6-(dimethylamino)-2-methylpyrimidin-4-yl]amino}cyclohexyl)thiourea hydrochloride] | > 200
8 | Cc1nc(N[C@H]2CC[C@@H](NC(=O)Oc3ccc(Br)cc3)CC2)cc(N(C)C)n1 [Example 184, 4-Bromophenyl (cis-4-{[6-(dimethylamino)-2-methylpyrimidin-4-yl]amino}cyclohexyl)carbamate] | > 200
9 | COc1cc(N[C@H]2CC[C@@H](NC(=O)c3ccc(F)c(Cl)c3)CC2)nc(OC)n1 [Example 185, 3-Chloro-N-{cis-4-[(2,6-dimethoxypyrimidin-4-yl)amino]cyclohexyl}-4-fluorobenzamide hydrochloride] | > 200
10 | O=C(N[C@H]1CC[C@@H](Nc2ncnc3[nH]ccc23)CC1)c1ccc(F)c(Cl)c1 [Example 186, 3-Chloro-4-fluoro-N-[cis-4-(7H-pyrrolo[2,3-d]pyrimidin-4-ylamino)cyclohexyl]benzamide hydrochloride] | > 200
11 | Cn1ccc2c(N[C@H]3CC[C@@H](NC(=O)c4ccc(F)c(Cl)c4)CC3)ncnc21 [Example 187, 3-Chloro-4-fluoro-N-{cis-4-[(7-methyl-7H-pyrrolo[2,3-d]pyrimidin-4-yl)amino]cyclohexyl}-benzamide hydrochloride] | 50 to 200
12 | N^4-(cis-4-{[Bromo-2-(trifluoromethoxy)benzyl]amino}cyclohexyl)-N^2,N^2-dimethylpyrimidine-2,4-diamine dihydrochloride [Example 42] | > 200

Second part, the molecule after the results:

Row | IC50 [nM] | Molecule
13 | 50 to 200 | Cn1ccc2c(N[C@H]3CC[C@@H](NC(=O)c4cc(F)c(F)c(F)c4)CC3)ncnc21 [Example 188, 3,4,5-Trifluoro-N-{cis-4-[(7-methyl-7H-pyrrolo[2,3-d]pyrimidin-4-yl)amino]cyclohexyl}benzamide hydrochloride]
14 | > 200 | CCn1ccc2c(N[C@H]3CC[C@@H](NC(=O)c4ccc(F)c(Cl)c4)CC3)ncnc21 [Example 189, 3-Chloro-N-{cis-4-[(7-ethyl-7H-pyrrolo[2,3-d]pyrimidin-4-yl)amino]cyclohexyl}-4-fluorobenzamide hydrochloride]
15 | > 200 | Cn1cnc2c(N[C@H]3CC[C@@H](NC(=O)c4ccc(F)c(Cl)c4)CC3)ncnc21 [Example 190, 3-Chloro-4-fluoro-N-{cis-4-[(9-methyl-9H-purin-6-yl)amino]cyclohexyl}benzamide hydrochloride]
16 | < 50 | Cc1nc(N[C@H]2CC[C@@H](C(=O)Nc3ccc(F)c(Cl)c3)CC2)cc(N(C)C)n1 [Example 191, cis-N-(3-Chloro-4-fluorophenyl)-4-{[6-(dimethylamino)-2-methylpyrimidin-4-yl]amino}cyclohexanecarboxamide hydrochloride]
17 | 50 to 200 | Cc1nc(N[C@H]2CC[C@@H](C(=O)Nc3ccc(F)c(F)c3)CC2)cc(N(C)C)n1 [Example 192, cis-N-(3,4-Difluorophenyl)-4-{[6-(dimethylamino)-2-methylpyrimidin-4-yl]amino}cyclohexanecarboxamide hydrochloride]
18 | < 50 | Cc1nc(N[C@H]2CC[C@@H](C(=O)Nc3cc(F)c(F)c(F)c3)CC2)cc(N(C)C)n1 [Example 193, cis-4-{[6-(Dimethylamino)-2-methylpyrimidin-4-yl]amino}-N-(3,4,5-trifluorophenyl)-cyclohexanecarboxamide hydrochloride]
19 | > 200 | Cc1nc(N[C@H]2CC[C@@H](C(=O)Oc3ccc(F)c(Cl)c3)CC2)cc(N(C)C)n1 [Example 194, 3-Chloro-4-fluorophenyl cis-4-{[6-(dimethylamino)-2-methylpyrimidin-4-yl]amino}-cyclohexanecarboxylate hydrochloride]
20 | > 200 | Cc1nc(N[C@H]2CC[C@@H](C(=O)Nc3cc(Cl)cc(Cl)c3)CC2)cc(N(C)C)n1 [Example 195, cis-N-(3,5-Dichlorophenyl)-4-{[6-(dimethylamino)-2-methylpyrimidin-4-yl]amino}-cyclohexanecarboxamide hydrochloride]
21 | > 200 | Cc1nc(N[C@H]2CC[C@@H](C(=O)Oc3ccc(F)c(F)c3)CC2)cc(N(C)C)n1 [Example 196, 3,4-Difluorophenyl cis-4-{[6-(dimethylamino)-2-methylpyrimidin-4-yl]amino}-cyclohexanecarboxylate hydrochloride]
